# Source: article PMC4703549 (Cancer research, 2015)
# Entries after “also recorded” stand apart in the source; their conditions may differ. Read-outs that look alike come from different tables or passages of the source.
# Assays:
# TNK2 D163E cells = type: cell-based, murine; conditions: for IC50: Ba/F3 TNK2 D163E, no IL3, 72 hours, MTS
# [1] = tested on: TNK2 D163E T205I and T205M Ba/F3 lines; type: cell-based, murine; conditions: T205I and T205M added to D163E, IL-3 independent Ba/F3 lines
# TNK2 R806Q cells = type: cell-based, murine; conditions: for IC50: Ba/F3 TNK2 R806Q, no IL3, 72 hours, MTS
# [2] = tested on: TNK2 S808* and TNK2 Q831fs; assay: Phosphorylation of TNK2 truncation mutants in transfected 293T17 cells; type: cell-based, human; conditions: 1 μM dasatinib, 2.5 μM XMD8-87 or 2.5 μM XMD16-5, 3.5 hours
# parental Ba/F3 cells = assay: Inhibitor study, MTS viability of control Ba/F3 cells grown in IL3; type: cell-based, murine; conditions: IL3 containing medium; highest tested concentration 1,000 nM
compound,measurement,setting,value
c1ccc(-c2oc3ncnc(NC[C@@H]4CCCO4)c3c2-c2ccccc2)cc1 [AIM-100],IC50,TNK2 D163E cells,91 nM
same,sensitivity of D163E cell lines carrying gatekeeper mutations,[1],resistance
same,IC50,TNK2 R806Q cells,320 nM
COc1cc(N2CCN(C)CC2)ccc1Nc1ncc2c(n1)N(C)c1ccccc1C(=O)N2 [XMD8-87],inhibition of phosphorylation of TNK2 truncation mutants,[2],vast majority of phosphorylation was blocked; also recorded: inhibited; also recorded: potently inhibit
same,IC50,TNK2 D163E cells,38 nM
same,sensitivity of D163E cell lines carrying gatekeeper mutations,[1],resistance
same,IC50,TNK2 R806Q cells,113 nM
CN1c2ccccc2C(=O)Nc2cnc(Nc3ccc(N4CCC(O)CC4)cc3)nc21 [XMD16-5],inhibition of phosphorylation of TNK2 truncation mutants,[2],vast majority of phosphorylation was blocked; also recorded: inhibited; also recorded: potently inhibit
same,IC50,TNK2 D163E cells,16 nM
same,sensitivity of D163E cell lines carrying gatekeeper mutations,[1],resistance
same,IC50,TNK2 R806Q cells,77 nM
"Cc1nc(Nc2ncc(C(=O)Nc3c(C)cccc3Cl)s2)cc(N2CCN(CCO)CC2)n1 [dasatinib, N-(2-chloro-6-methyl-phenyl)-2-(6-(4-(2-hydroxyethyl)-piperazin-1-yl)-2-methylpyrimidin-4-ylamino)thiazole-5-carboxamide]",inhibition of phosphorylation of TNK2 truncation mutants,[2],vast majority of phosphorylation was blocked; also recorded: inhibited
same,sensitivity of post-transformation line,TNK2 D163E cells; Ba/F3 TNK2 D163E post-interleukin-3-independent transformation,sensitive to dasatinib at low nanomolar concentrations
same,IC50,TNK2 D163E cells,< 10 nM
same,IC50,TNK2 D163E cells; listed as Dasatinib,~0.1 nM
same,sensitivity of D163E cell lines carrying gatekeeper mutations,[1],resistance
same,sensitivity of control or pre-transformation cell lines grown in IL3,parental Ba/F3 cells,did not show sensitivity; also recorded: completely insensitive
same,sensitivity of post-transformation line,TNK2 R806Q cells; Ba/F3 TNK2 R806Q post-interleukin-3-independent transformation,sensitive to dasatinib at low nanomolar concentrations
same,IC50,TNK2 R806Q cells,< 10 nM
same,IC50,TNK2 R806Q cells; listed as Dasatinib,1.3 nM
